US11724987B2, “Compositions and methods of treating retinal disease” (Aldeyra Therapeutics, Inc., priority 2005, dated 2023)

Assays:
[1] = vendor value; cited from earlier work
[2] = NMR analysis of RAL reactions (Schiff base condensation and ring formation); settings: for tau (minutes) condense: Schiff base condensation with RAL; for tau (minutes) ring: ring formation after condensation with RAL
dark adapted rats = assay: ERG analysis of dark adaptation, dose ranging protocol; type: in vivo, rat; settings: i.p.
Experimental: Dark adaptation is the recovery of visual sensitivity following exposure to light. Dark adaptation has multiple components including both fast (neuronal) processes and slow (photochemical) process. Regeneration of visual pigment is related to the slow photochemical process. Dark adaptation rates are measured for several reasons. Night blindness results from a failure to dark adapt (loss of visual light sensitivity). It is possible to find a safe dose for night vision by measuring drug effects on dark adapted visual light sensitivity.
An electroretinogram (ERG) is used measure dark adaptation under normal vs. drug conditions. ERG is the measurement of the electric field potential emitted by retinal neurons during their response to an experimentally defined light stimulus. More specifically, ERG measures retinal field potentials at the cornea after a flash of light (e.g., 50 ms). Field strengths are 10^2 to 10^3 microvolts, originating in retinal cells.
In a typical ERG analysis of dark adaptation experiment, every rat is dark adapted for hours to reach a consistent state of light sensitivity. […]
The ERG measurement is taken after a specific duration of post-bleach dark recovery (e.g., 30 min) determined previously by kinetic analysis (see FIGS. 6a and 6b). […]

human retinal vision = settings: human occupational exposure, absorbed by the skin; cited from earlier work
[3] = negative control; cited from earlier work

Nc1nccs1 [Compound 3]
calculated logP vendor [1]: 0.8

CCOC(=O)c1csc(N)n1 [Compound 1]
calculated logP vendor [1]: 1.2

CC(C)(O)c1ccccc1N [Compound 8]
tau (minutes) condense [2]: 122 min | tau (minutes) ring [2]: 109 min

CCOC(=O)Cc1csc(N)n1 [Compound 4]
calculated logP vendor [1]: 1.4

CCOC(=O)c1cccc(N)c1 [Compound 6, tricaine methane sulfonate]
ERG light sensitivity of dark adapted rats (dark adapted rats; dose ranging, FIG. 7): lowers light sensitivity of dark adapted rats in a dose dependent manner | duration of effect on vision (dark adapted rats; rats, ERG): decreases after 3 hours | calculated logP vendor [1]: 1.8 | effect on night vision (human retinal vision): attenuates night vision reversibly

CC(C)(O)c1nc2ccc(Cl)cc2cc1N [Compound 9]
tau (minutes) condense [2]: 320 min | tau (minutes) ring [2]: 568 min

CCN(CC)CC(=O)Nc1c(C)cccc1C [lidocaine]
Schiff base formation [3]: does not form a Schiff base

COC(=O)c1nc(N)sc1Cl [Compound 2]
calculated logP vendor [1]: 1.3
